Reference: ChEMBL document CHEMBL5226363, “Alkaloids and Coumarins with Adiponectin-Secretion-Promoting Activities from the Leaves of Orixa japonica” (J Nat Prod, 2023)
Calls of active or inactive are those of the source. The calls are words filed in the database; no cut-off is given here.

Tests used:
[1] = tested on: Mesenchymal stem cells; assay: Cytotoxicity against human BMMSC cells assessed as reduction in cell viability at 10 uM incubated for 72 hrs by CCK8 assay; type: toxicity, cell-based
[2] = biological target: T1, Peroxisome proliferator-activated receptor gamma (Homo sapiens, UniProt P37231); assay: Agonist activity at PPARgamma in human BMMSC cells assessed as promotion of adiponectin secretion by measuring increase in adiponectin level in presence of IDX medium by ELISA; type: cell-based
T1 sequence (P37231 whole entry): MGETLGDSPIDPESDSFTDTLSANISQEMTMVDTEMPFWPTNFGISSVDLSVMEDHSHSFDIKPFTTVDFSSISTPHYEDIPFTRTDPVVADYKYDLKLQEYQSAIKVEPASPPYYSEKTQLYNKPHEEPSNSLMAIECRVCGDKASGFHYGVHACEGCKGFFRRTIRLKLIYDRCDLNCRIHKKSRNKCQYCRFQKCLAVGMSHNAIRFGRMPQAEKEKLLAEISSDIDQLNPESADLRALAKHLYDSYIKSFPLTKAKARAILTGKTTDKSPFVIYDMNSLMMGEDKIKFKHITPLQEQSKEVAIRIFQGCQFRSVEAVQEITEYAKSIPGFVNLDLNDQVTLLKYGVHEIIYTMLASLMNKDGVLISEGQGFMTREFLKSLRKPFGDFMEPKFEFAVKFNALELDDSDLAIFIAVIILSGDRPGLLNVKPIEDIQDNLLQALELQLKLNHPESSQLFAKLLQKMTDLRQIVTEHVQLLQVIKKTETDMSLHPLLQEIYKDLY

[3] = biological target: T1, Peroxisome proliferator-activated receptor gamma; assay: Partial agonist activity at PPARgamma in human BMMSC cells assessed as promotion of adiponectin secretion by measuring increase in adiponectin level in presence of IDX medium by ELISA; type: cell-based
[4] = biological target: T2, Peroxisome proliferator-activated receptor gamma (Homo sapiens) (UniProt P37231); assay: Partial agonist activity at GST-tagged PPAR-gamma ligand binding domain (unknown origin) assessed as inhibition of pioglitazone-induced recruitment of fluorescein-labeled PRIP/RAP250 coactivator peptide at 10 uM in presence of pioglitazone by LanthaScreen TR-FRET Coactivator assay; conditions: filed as partial agonist
T2 sequence (whole entry): T1 sequence (P37231 whole entry)

[5] = biological target: T3, Peroxisome proliferator-activated receptor delta (Homo sapiens) (UniProt Q03181); assay: Displacement of fluormone pan-PPARgreen from GST-tagged human PPARdelta ligand binding domain at 10 uM by LanthaScreen TR-FRET competitive binding assay
T3 sequence (whole entry): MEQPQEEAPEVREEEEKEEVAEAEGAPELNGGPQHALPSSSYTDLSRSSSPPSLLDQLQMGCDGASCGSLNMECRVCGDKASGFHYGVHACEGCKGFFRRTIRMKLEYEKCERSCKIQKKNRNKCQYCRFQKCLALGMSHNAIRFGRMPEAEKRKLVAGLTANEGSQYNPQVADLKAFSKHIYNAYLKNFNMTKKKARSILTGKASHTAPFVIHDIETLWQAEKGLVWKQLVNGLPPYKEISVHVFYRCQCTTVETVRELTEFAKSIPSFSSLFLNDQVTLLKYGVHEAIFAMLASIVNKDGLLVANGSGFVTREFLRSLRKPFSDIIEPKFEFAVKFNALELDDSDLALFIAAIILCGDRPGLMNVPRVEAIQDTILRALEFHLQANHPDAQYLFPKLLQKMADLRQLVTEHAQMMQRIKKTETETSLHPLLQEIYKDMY

[6] = biological target: T2, Peroxisome proliferator-activated receptor gamma (Homo sapiens); assay: Partial agonist activity at PPARgamma in human BMMSC cells assessed as increase in size and number of intracellular lipid droplets during adipocyte differentiation in presence of IDX medium at 10 uM by Oil Red O/hematoxylin staining based analysis; type: cell-based; conditions: filed as partial agonist
[7] = biological target: T4, Peroxisome proliferator-activated receptor alpha (Homo sapiens) (UniProt Q07869); assay: Displacement of fluormone pan-PPARgreen from GST-tagged human PPARalpha ligand binding domain at 10 uM by LanthaScreen TR-FRET competitive binding assay
T4 sequence (whole entry): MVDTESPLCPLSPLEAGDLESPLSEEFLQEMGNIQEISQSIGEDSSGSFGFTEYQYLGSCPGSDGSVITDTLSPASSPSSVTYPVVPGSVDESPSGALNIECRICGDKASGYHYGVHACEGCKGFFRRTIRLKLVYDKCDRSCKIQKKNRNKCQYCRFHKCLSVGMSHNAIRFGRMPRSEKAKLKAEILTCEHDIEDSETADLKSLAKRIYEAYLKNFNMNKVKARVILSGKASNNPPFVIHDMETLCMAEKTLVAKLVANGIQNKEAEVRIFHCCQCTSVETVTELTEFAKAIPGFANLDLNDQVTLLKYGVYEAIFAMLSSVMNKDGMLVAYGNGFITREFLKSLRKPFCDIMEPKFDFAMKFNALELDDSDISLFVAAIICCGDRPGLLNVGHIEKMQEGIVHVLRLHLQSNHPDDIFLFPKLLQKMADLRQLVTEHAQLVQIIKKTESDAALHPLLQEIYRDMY

[8] = biological target: T1, Peroxisome proliferator-activated receptor gamma; assay: Displacement of fluormone pan-PPARgreen from GST-tagged human PPARgamma ligand binding domain by LanthaScreen TR-FRET competitive binding assay
[9] = biological target: T5, Bile acid receptor (Homo sapiens) (UniProt Q96RI1); assay: Agonist activity at GST-tagged FXR ligand binding domain (unknown origin) at 10 uM LanthaScreen TR-FRET Coactivator assay
T5 sequence (whole entry): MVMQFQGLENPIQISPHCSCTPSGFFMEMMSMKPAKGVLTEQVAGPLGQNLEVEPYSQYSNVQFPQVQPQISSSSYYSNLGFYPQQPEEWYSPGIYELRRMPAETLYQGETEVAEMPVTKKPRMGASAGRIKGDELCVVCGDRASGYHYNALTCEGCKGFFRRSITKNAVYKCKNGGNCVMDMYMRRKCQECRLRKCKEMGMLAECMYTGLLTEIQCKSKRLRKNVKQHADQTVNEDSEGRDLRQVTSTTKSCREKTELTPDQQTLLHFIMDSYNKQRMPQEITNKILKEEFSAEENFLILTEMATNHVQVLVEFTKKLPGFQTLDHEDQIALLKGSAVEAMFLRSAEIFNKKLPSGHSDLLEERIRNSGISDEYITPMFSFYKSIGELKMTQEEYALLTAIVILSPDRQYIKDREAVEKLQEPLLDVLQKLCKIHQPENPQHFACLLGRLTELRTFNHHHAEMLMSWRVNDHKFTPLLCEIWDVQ

[10] = biological target: T6, Oxysterols receptor LXR-beta (Homo sapiens) (UniProt P55055); assay: Agonist activity at GST-tagged LXR-beta ligand binding domain (unknown origin) at 10 uM LanthaScreen TR-FRET Coactivator assay
T6 sequence (whole entry): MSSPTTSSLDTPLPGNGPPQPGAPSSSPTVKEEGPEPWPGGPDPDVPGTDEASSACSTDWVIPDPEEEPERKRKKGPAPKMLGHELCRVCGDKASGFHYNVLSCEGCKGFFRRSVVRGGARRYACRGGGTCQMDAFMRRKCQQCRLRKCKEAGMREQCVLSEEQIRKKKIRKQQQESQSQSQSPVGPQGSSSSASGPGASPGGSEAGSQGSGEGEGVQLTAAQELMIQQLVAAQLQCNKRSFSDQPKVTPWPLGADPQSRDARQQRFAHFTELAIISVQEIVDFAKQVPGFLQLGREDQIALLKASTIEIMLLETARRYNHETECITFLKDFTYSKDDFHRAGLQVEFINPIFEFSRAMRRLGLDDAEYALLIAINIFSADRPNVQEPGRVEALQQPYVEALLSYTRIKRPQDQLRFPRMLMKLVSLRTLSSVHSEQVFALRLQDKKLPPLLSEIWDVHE

[11] = biological target: T1, Peroxisome proliferator-activated receptor gamma; assay: Partial agonist activity at GST-tagged PPAR-gamma ligand binding domain (unknown origin) assessed as recruitment of fluorescein-labeled PRIP/RAP250 coactivator peptide by LanthaScreen TR-FRET Coactivator assay
[12] = biological target: T1, Peroxisome proliferator-activated receptor gamma; assay: Partial agonist activity at GST-tagged PPAR-gamma ligand binding domain (unknown origin) assessed as recruitment of fluorescein-labeled SRC3 coactivator peptide by LanthaScreen TR-FRET Coactivator assay
[13] = biological target: T2, Peroxisome proliferator-activated receptor gamma (Homo sapiens); assay: Partial agonist activity at GST-tagged PPAR-gamma ligand binding domain (unknown origin) assessed as recruitment of fluorescein-labeled PRIP/RAP250 coactivator peptide at 10 uM by LanthaScreen TR-FRET Coactivator assay; conditions: filed as partial agonist
[14] = biological target: T1, Peroxisome proliferator-activated receptor gamma; assay: Partial agonist activity at GST-tagged PPAR-gamma ligand binding domain (unknown origin) assessed as recruitment of fluorescein-labeled SRC1 coactivator peptide by LanthaScreen TR-FRET Coactivator assay

Structure (SMILES) | Activity [1] | also measured
COc1c2ccoc2c(OC)c2oc(=O)ccc12 [ISOPIMPINELLIN] | Non-Toxic | 
C=C(C)C(CC/C(C)=C/COc1c(OC)cc2ccc(=O)oc2c1OC)OO (configuration not stated) | Non-Toxic | 
C=C(C)C(O)CC/C(C)=C/COc1ccc2ccc(=O)oc2c1 (configuration not stated) | Non-Toxic | 
CC(C)=CCOc1c2occc2cc2ccc(=O)oc12 [PENTOSALEN] | Non-Toxic | 
COc1ccc(Cl)cc1C(=O)NCCc1ccc(S(=O)(=O)NC(=O)NC2CCCCC2)cc1 [GLYBURIDE] |  | EC50 [2]: 2.3 µM
COc1ccc(-c2cc(=O)c3c(O)cccc3n2C)cc1 | Non-Toxic | 
C=C(C)C(O)COc1c2occc2cc2ccc(=O)oc12 (configuration not stated) | Non-Toxic | 
COc1cc2ccc(=O)oc2c(OC)c1OC/C=C(\C)CCC=C(C)C [ALTISSIMACOUMARIN D] | Non-Toxic | EC50 [2]: > 30 µM
O=c1ccc2cc3ccoc3cc2o1 [PSORALEN] | Non-Toxic | 
COc1c(CC(=O)C(C)C)c(=O)n(C)c2c(OC)cccc12 [ORIXALONE A] | Non-Toxic | 
COc1c(CC=C(C)C)c(=O)n(C)c2c(OC)cccc12 | Non-Toxic | 
COc1c2occc2cc2ccc(=O)oc12 [METHOXSALEN] | Non-Toxic | 
Cn1c(-c2ccccc2)cc(=O)c2c(O)cccc21 | Non-Toxic | 
COc1c(CC=C(C)C)c(=O)[nH]c2c(OC)c(O)ccc12 | Non-Toxic | 
COc1ccc(-c2cc(=O)c3c(O)c(OC)ccc3n2C)cc1 | Non-Toxic | 
C=C[C@]1(C)C[C@H](OC(C)=O)[C@@H](C(C)(C)O)C[C@H]1C(=C)C | Non-Toxic | 
COC(C)(C)/C=C/C/C(C)=C/COc1ccc2ccc(=O)oc2c1 | Non-Toxic | 
COc1cc2ccc(=O)oc2c(OC)c1OC/C=C(\C)C/C=C/C(C)(C)OO | Non-Toxic | 
COc1c(CC(=O)C(C)C)c(=O)[nH]c2c(OC)cccc12 | Non-Toxic | 
C=C[C@]1(C)C[C@H](O)[C@@H](C(C)(C)O)C[C@H]1C(=C)C | Non-Toxic | 
COc1c2c(cc3ccc(=O)oc13)C[C@@H](C(C)(C)OC(C)=O)O2 | Non-Toxic | 
CC(C)=CCC/C(C)=C/COc1ccc2ccc(=O)oc2c1 | Non-Toxic | EC50 [2]: > 30 µM
COc1c(CC(=O)C(C)C)c(=O)n(C)c2ccccc12 | Non-Toxic | 
COc1c(CC=C(C)C)c(=O)n(C)c2ccccc12 | Non-Toxic | 
COc1c2ccoc2cc2oc(=O)ccc12 [BERGAPTEN] | Non-Toxic | 
COc1c(CC(=O)C(C)C)c(=O)n(C)c2c(OC)c(O)ccc12 | Non-Toxic | 
COc1cc2ccc(=O)oc2cc1OC/C=C(\C)CCC=C(C)C | Non-Toxic | EC50 [3]: 25.8 µM; Activity [4]: Active; Activity [5]: inactive; Activity [6]: Active; Activity [7]: inactive; Ki [8]: 10.7 µM; Activity [9]: inactive; Activity [10]: inactive; EC50 [11]: 17.3 µM; EC50 [12]: > 30 µM; Activity [13]: Active; EC50 [14]: > 30 µM
CC(=O)[C@H]1CC[C@@H]2[C@@H]1[C@H](C(C)C)CC[C@]2(C)O | Non-Toxic | 
